Data on 4 compounds can be found in US20260265329A1, “POLYPEPTIDE AND DERIVATIVE THEREOF, COMPOSITION, AND USE THEREOF” (HANGZHOU SCIWIND BIOSCIENCES CO., LTD., priority 2023, published 2026).

pEC50: −log10 of the molar value. Starred links: 1 amine or outer side, 2 acyl side, 3 side chain; linkers in the order of their positions; H or OH if unused. Non-standard residues stand in square brackets, D forms with d. Residues, ends and D or L forms follow the SMILES beside them. *: point of attachment. C20 diacid = O=C(O)CCCCCCCCCCCCCCCCCCC(=O)*; C16 diacid = O=C(O)CCCCCCCCCCCCCCC(=O)*; γGlu = O=C(O)[C@H](CCC(=O)[*:2])N[*:1]; βAsp = O=C(O)[C@H](CC(=O)[*:2])N[*:1]; Hyp = O=C(O)[C@@H]1C[C@@H](O)CN1; AEEA = NCCOCCOCC(=O)O

A short description of series [1]: Heat accelerated stability assay, 40° C., detection on 7 d and 28 d. It is filed as physicochemical. The procedure: The derivatives (1 mg/mL) were mixed with sodium dihydrogen phosphate (1.42 mg/mL) and dissolved in ultrapure water. After adjusting pH to about 7.4 with hydrochloric acid/sodium hydroxide, the solution was filtered into a sterilized vial in a clean bench using a 0.22 μm sterile filter. The vial was then capped and placed into the stability test chamber at 40° C. Detections were made on Days 7 (7d) and 28 (28d), and during the assay, changes in the characteristics and properties of the polypeptides were observed and recorded. The sample was then centrifuged for 3 min at 10000 rpm at 4° C., and the supernatant was transferred to a liquid phase sample vial for detecting the concentration and purity of the polypeptides using liquid phase chromatography described as below.
Conditions of the reversed phase chromatography Flow rate: 1.0 mL/min; Autosampler temperature: 15° C.; Column temperature: 25° C.; Detection wavelength: 214 nm; Mobile phase A: 100% H2O+0.05% TFA; Mobile phase B: 100% ACN; and Gradient of elution listed in Table 4: […]

The target of another series is T1, human amylin receptors (Homo sapiens, UniProt O60896+P30988).
T1 construct: host or cells: CHO-K1/Ga15/AMY3 cells, further stably transfected with a CRE-luciferase plasmid
T1 sequence (P30988 25-474): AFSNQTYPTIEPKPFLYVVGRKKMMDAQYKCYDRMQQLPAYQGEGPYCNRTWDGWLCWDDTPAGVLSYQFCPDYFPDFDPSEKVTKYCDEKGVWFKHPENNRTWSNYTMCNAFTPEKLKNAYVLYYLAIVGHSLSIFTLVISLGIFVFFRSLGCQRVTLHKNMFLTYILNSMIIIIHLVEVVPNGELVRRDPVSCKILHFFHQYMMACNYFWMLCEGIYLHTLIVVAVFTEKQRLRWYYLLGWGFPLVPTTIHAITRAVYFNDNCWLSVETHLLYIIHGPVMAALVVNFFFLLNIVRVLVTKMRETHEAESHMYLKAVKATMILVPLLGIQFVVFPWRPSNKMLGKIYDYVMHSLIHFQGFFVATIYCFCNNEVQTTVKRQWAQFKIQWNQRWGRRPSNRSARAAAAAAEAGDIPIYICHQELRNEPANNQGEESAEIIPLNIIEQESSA
T1 sequence (O60896 24-148 partner): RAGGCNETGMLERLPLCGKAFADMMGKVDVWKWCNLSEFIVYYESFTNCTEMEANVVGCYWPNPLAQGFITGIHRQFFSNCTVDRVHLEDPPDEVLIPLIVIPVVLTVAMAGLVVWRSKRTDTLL
Kind of series: Luciferase assay in stably transfected amylin receptor/CRE-luc CHO cell line. The following applies: for Relative activity: EC50 ratio of Cagrilintide to the compound, Cagrilintide 100%; for pEC50: amylin receptor/CRE-luc CHO cells, 24 hours incubation, luminescence. It counts as cell-based.

“M10: ASQLSTAVLQRLADFLRHFTDRDRDILPPTNVGSNTP-NH2 (SEQ ID No. 10), N-terminal side chain C20 diacid + γGlu ({C20 diacid-γGlu}-ASQLSTAVLQRLADFLRHFTDRDRDILPPTNVGSNTP-NH2; SMILES CC[C@H](C)[C@H](NC(=O)[C@H](CC(=O)O)NC(=O)[C@H](CCCNC(=N)N)NC(=O)[C@H](CC(=O)O)NC(=O)[C@H](CCCNC(=N)N)NC(=O)[C@H](CC(=O)O)NC(=O)[C@@H](NC(=O)[C@H](Cc1ccccc1)NC(=O)[C@H](Cc1c[nH]cn1)NC(=O)[C@H](CCCNC(=N)N)NC(=O)[C@H](CC(C)C)NC(=O)[C@H](Cc1ccccc1)NC(=O)[C@H](CC(=O)O)NC(=O)[C@H](C)NC(=O)[C@H](CC(C)C)NC(=O)[C@H](CCCNC(=N)N)NC(=O)[C@H](CCC(N)=O)NC(=O)[C@H](CC(C)C)NC(=O)[C@@H](NC(=O)[C@H](C)NC(=O)[C@@H](NC(=O)[C@H](CO)NC(=O)[C@H](CC(C)C)NC(=O)[C@H](CCC(N)=O)NC(=O)[C@H](CO)NC(=O)[C@H](C)NC(=O)CC[C@H](NC(=O)CCCCCCCCCCCCCCCCCCC(=O)O)C(=O)O)[C@@H](C)O)C(C)C)[C@@H](C)O)C(=O)N[C@@H](CC(C)C)C(=O)N1CCC[C@H]1C(=O)N1CCC[C@H]1C(=O)N[C@H](C(=O)N[C@@H](CC(N)=O)C(=O)N[C@H](C(=O)NCC(=O)N[C@@H](CO)C(=O)N[C@@H](CC(N)=O)C(=O)N[C@H](C(=O)N1CCC[C@H]1C(N)=O)[C@@H](C)O)C(C)C)[C@@H](C)O)”: in series [1] (1 mg/mL, pH about 7.4, 40° C., 0 d, in % (unit assumed)), the “Purity from the reversed phase chromatography-214 nm, 0 d” value was determined as 94.73. The “Purity from the reversed phase chromatography-214 nm, 7 d” value in series [1] (1 mg/mL, pH about 7.4, 40° C., 7 d, in % (unit assumed)) is given as 94.89. The Purity from the reversed phase chromatography-214 nm, 28 d in series [1] (1 mg/mL, pH about 7.4, 40° C., 28 d) came to 93.8%. This compound returned a Change (7 d − 0 d) in series [1] (purity on 7 d − purity on 0 d, 40° C., pH about 7.4) of 0.16%. In addition, in series [1] (purity on 28 d − purity on 0 d, 40° C., pH about 7.4, in % (unit assumed)), the “Change (28 d − 0 d)” value is reported as −0.93.
Consider `CC[C@H](C)[C@H](NC(=O)[C@@H]1CCCN1C(=O)[C@H](CCCCN)NC(=O)[C@H](CC(C)C)NC(=O)[C@H](CC(N)=O)NC(=O)[C@H](CC(N)=O)NC(=O)[C@H](CO)NC(=O)[C@H](CO)NC(=O)[C@H](Cc1c[nH]cn1)NC(=O)[C@H](CCCNC(=N)N)NC(=O)[C@H](CC(C)C)NC(=O)[C@H](Cc1ccccc1)NC(=O)[C@H](CC(=O)O)NC(=O)[C@H](C)NC(=O)[C@H](CC(C)C)NC(=O)[C@H](CCCNC(=N)N)NC(=O)[C@H](CCC(N)=O)NC(=O)[C@@H](NC(=O)[C@H](C)NC(=O)[C@H](C)NC(=O)[C@@H](NC(=O)[C@H](CO)NC(=O)[C@H](CC(C)C)NC(=O)[C@H](CCC(N)=O)NC(=O)[C@H](CO)NC(=O)[C@H](C)NC(=O)COCCOCCNC(=O)COCCOCCNC(=O)[C@H](CC(=O)O)NC(=O)CCCCCCCCCCCCCCCCCCC(=O)O)[C@@H](C)O)[C@@H](C)O)C(=O)N[C@@H](CC(C)C)C(=O)N1CCC[C@H]1C(=O)N1CCC[C@H]1C(=O)N[C@H](C(=O)N[C@@H](CC(N)=O)C(=O)N[C@H](C(=O)NCC(=O)N[C@@H](CO)C(=O)N[C@@H](CC(N)=O)C(=O)N[C@H](C(=O)N1C[C@H](O)C[C@H]1C(N)=O)[C@@H](C)O)C(C)C)[C@@H](C)O` [M34] ({C20 diacid}-D[AEEA][AEEA]ASQLSTAATQRLADFLRHSSNNLKPILPPTNVGSNT[Hyp]-NH2), for which, at human amylin receptors, the Relative activity is listed as 40% and the pEC50 is 9.88.
On to `CC[C@H](C)[C@H](NC(=O)[C@H](CC(=O)O)NC(=O)[C@H](CCCNC(=N)N)NC(=O)[C@H](CC(=O)O)NC(=O)[C@H](CCCNC(=N)N)NC(=O)[C@H](CC(=O)O)NC(=O)[C@@H](NC(=O)[C@H](Cc1ccccc1)NC(=O)[C@H](Cc1c[nH]cn1)NC(=O)[C@H](CCCNC(=N)N)NC(=O)[C@H](CC(C)C)NC(=O)[C@H](Cc1ccccc1)NC(=O)[C@H](CC(=O)O)NC(=O)[C@H](C)NC(=O)[C@H](CC(C)C)NC(=O)[C@H](CCCNC(=N)N)NC(=O)[C@H](CCC(N)=O)NC(=O)[C@@H](NC(=O)[C@H](C)NC(=O)[C@H](C)NC(=O)[C@@H](NC(=O)[C@H](CO)NC(=O)[C@H](CC(C)C)NC(=O)[C@H](CCC(N)=O)NC(=O)[C@H](CO)NC(=O)[C@H](C)NC(=O)CC[C@H](NC(=O)CCCCCCCCCCCCCCC(=O)O)C(=O)O)[C@@H](C)O)[C@@H](C)O)[C@@H](C)O)C(=O)N[C@@H](CC(C)C)C(=O)N1CCC[C@H]1C(=O)N1CCC[C@H]1C(=O)N[C@H](C(=O)N[C@@H](CC(N)=O)C(=O)N[C@H](C(=O)NCC(=O)N[C@@H](CO)C(=O)N[C@@H](CC(N)=O)C(=O)N[C@H](C(=O)N1CCC[C@H]1C(N)=O)[C@@H](C)O)C(C)C)[C@@H](C)O` [M23] ({C16 diacid-γGlu}-ASQLSTAATQRLADFLRHFTDRDRDILPPTNVGSNTP-NH2), for which, at human amylin receptors, the Relative activity is 182% and the negative logarithm of the EC50 (pEC50) is 10.77.
`CC[C@H](C)[C@H](NC(=O)[C@H](CC(=O)O)NC(=O)[C@H](CCCNC(=N)N)NC(=O)[C@H](CC(=O)O)NC(=O)[C@H](CCCNC(=N)N)NC(=O)[C@H](CC(=O)O)NC(=O)[C@@H](NC(=O)[C@H](Cc1ccccc1)NC(=O)[C@H](Cc1c[nH]cn1)NC(=O)[C@H](CCCNC(=N)N)NC(=O)[C@H](CC(C)C)NC(=O)[C@H](Cc1ccccc1)NC(=O)[C@H](CC(=O)O)NC(=O)[C@H](C)NC(=O)[C@H](CC(C)C)NC(=O)[C@H](CCCNC(=N)N)NC(=O)[C@H](CCC(N)=O)NC(=O)[C@@H](NC(=O)[C@H](C)NC(=O)[C@H](C)NC(=O)[C@@H](NC(=O)[C@H](CO)NC(=O)[C@H](CC(C)C)NC(=O)[C@H](CCC(N)=O)NC(=O)[C@H](CO)NC(=O)[C@H](C)NC(=O)C[C@H](NC(=O)CCCCCCCCCCCCCCCCCCC(=O)O)C(=O)O)[C@@H](C)O)[C@@H](C)O)[C@@H](C)O)C(=O)N[C@@H](CC(C)C)C(=O)N1CCC[C@H]1C(=O)N1CCC[C@H]1C(=O)N[C@H](C(=O)N[C@@H](CC(N)=O)C(=O)N[C@H](C(=O)NCC(=O)N[C@@H](CO)C(=O)N[C@@H](CC(N)=O)C(=O)N[C@H](C(=O)N1CCC[C@H]1C(N)=O)[C@@H](C)O)C(C)C)[C@@H](C)O` [M12] ({C20 diacid-βAsp}-ASQLSTAATQRLADFLRHFTDRDRDILPPTNVGSNTP-NH2): on human amylin receptors, the Relative activity stood at 78% and the pEC50 was 10.47.
